The values that follow come from US20230183243A1, “HETEROARYL DERIVATIVES AND PHARMACEUTICAL COMPOSITION COMPRISING SAME AS ACTIVE INGREDIENT” (VORONOI INC., priority 2019, published 2023).

One assay concerns the target T1, MAP3K2 (Homo sapiens, UniProt Q9Y2U5).
T1 construct: purchased DiscoverX Corp. ScanMAX Kinase panel
Nature of the assay: ScanMAX Kinase panel (DiscoverX). In kind it is binding. The note with it: read-out: % Cont @ 1 μM. The procedure: (§1) Further, to evaluate the inhibitory activity of the compound according to the present invention against more enzymes, an experiment was performed as follows. Specifically, the enzyme (kinase) selectivity of the compound of Example 64 selected from the Example compounds of the present invention was measured by commissioning DiscoverX Corp., and an experiment was performed using a panel for ScanMAX™ Kinase analysis. In this case, the concentration of a drug treated with the enzyme was set at 1 μM in DMSO, and the percent control (% control) were defined in the same manner as in the following Expression 1.
(§2) (Example compound−Positive control)/(Negative control−Positive control)×100 [Expression 1]
(§3) Wherein the positive control represents a compound having a percent control of 0%, and the negative control represents a compound having a percent control of 100% in DMSO. For the enzyme selectivity of the present invention, the compound was also judged to have activity against the corresponding enzyme when the percent control for each of the enzymes was <35% (i.e., less than 35%).

Another assay deals with T2, CSNK1E (Homo sapiens, UniProt P49674).
T2 construct: purchased DiscoverX Corp. ScanMAX Kinase panel
T2 sequence (P49674 whole entry): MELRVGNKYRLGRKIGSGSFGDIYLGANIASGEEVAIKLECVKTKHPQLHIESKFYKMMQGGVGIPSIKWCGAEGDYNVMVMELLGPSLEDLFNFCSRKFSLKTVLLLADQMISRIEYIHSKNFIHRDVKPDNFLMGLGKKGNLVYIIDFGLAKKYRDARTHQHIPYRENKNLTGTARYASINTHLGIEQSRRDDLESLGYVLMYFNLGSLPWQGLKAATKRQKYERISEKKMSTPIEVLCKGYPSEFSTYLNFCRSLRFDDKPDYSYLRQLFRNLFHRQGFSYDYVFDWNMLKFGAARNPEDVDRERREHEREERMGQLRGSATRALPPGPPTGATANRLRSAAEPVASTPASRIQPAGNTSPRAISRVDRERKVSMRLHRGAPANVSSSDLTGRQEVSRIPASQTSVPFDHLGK
Put plainly: ScanMAX Kinase panel (DiscoverX). The note with it: read-out: % Cont @ 1 μM. In kind it is binding. The protocol: as §1, §2, §3

Another assay concerns the target T3, CSNK1D (Homo sapiens, UniProt P48730).
T3 construct: purchased DiscoverX Corp. ScanMAX Kinase panel
Put plainly: ScanMAX Kinase panel (DiscoverX). In kind it is binding. As to conditions: read-out: % Cont @ 1 μM. The protocol:
as §1, §2, §3

The next assay concerns the target T4, ULK3 (Homo sapiens, UniProt Q6PHR2).
T4 construct: purchased DiscoverX Corp. ScanMAX Kinase panel
Put plainly: ScanMAX Kinase panel (DiscoverX). In kind it is binding. The protocol:
as §1, §2, §3

In assay [1] the target is T5, RSK2(Kin.Dom.1-N-terminal) (Homo sapiens, UniProt P51812).
T5 construct: RSK2(Kin.Dom.1-; purchased DiscoverX Corp. (ScanMAX Kinase panel, commissioned)
T5 sequence (P51812 68-327 limits assumed): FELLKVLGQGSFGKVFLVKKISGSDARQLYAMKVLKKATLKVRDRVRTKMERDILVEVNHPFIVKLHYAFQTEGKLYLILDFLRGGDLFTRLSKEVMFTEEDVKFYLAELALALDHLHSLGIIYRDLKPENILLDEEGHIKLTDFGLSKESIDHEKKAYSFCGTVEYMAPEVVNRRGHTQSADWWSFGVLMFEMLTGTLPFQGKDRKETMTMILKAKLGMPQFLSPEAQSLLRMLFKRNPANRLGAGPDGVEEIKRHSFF
Put plainly: ScanMAX Kinase panel (DiscoverX). In kind it is binding. The note with it: read-out: % Cont @ 1 μM. The procedure: as §1, §2, §3

Another assay has as its target T6, YSK4 (Homo sapiens, UniProt Q56UN5).
T6 construct: purchased DiscoverX Corp. (ScanMAX Kinase panel, commissioned)
Put plainly: ScanMAX Kinase panel (DiscoverX). In kind it is binding. The note with it: read-out: % Cont @ 1 μM. The procedure:
as §1, §2, §3

Another assay concerns the target T7, GAK (Homo sapiens, UniProt O14976).
T7 construct: purchased DiscoverX Corp. ScanMAX Kinase panel
Nature of the assay: ScanMAX Kinase panel (DiscoverX). In kind it is binding. The note with it: read-out: % Cont @ 1 μM. The procedure:
as §1, §2, §3

The target of the next assay is T8, ULK1 (Homo sapiens, UniProt O75385).
T8 construct: purchased DiscoverX Corp. ScanMAX Kinase panel
T8 sequence (O75385 whole entry): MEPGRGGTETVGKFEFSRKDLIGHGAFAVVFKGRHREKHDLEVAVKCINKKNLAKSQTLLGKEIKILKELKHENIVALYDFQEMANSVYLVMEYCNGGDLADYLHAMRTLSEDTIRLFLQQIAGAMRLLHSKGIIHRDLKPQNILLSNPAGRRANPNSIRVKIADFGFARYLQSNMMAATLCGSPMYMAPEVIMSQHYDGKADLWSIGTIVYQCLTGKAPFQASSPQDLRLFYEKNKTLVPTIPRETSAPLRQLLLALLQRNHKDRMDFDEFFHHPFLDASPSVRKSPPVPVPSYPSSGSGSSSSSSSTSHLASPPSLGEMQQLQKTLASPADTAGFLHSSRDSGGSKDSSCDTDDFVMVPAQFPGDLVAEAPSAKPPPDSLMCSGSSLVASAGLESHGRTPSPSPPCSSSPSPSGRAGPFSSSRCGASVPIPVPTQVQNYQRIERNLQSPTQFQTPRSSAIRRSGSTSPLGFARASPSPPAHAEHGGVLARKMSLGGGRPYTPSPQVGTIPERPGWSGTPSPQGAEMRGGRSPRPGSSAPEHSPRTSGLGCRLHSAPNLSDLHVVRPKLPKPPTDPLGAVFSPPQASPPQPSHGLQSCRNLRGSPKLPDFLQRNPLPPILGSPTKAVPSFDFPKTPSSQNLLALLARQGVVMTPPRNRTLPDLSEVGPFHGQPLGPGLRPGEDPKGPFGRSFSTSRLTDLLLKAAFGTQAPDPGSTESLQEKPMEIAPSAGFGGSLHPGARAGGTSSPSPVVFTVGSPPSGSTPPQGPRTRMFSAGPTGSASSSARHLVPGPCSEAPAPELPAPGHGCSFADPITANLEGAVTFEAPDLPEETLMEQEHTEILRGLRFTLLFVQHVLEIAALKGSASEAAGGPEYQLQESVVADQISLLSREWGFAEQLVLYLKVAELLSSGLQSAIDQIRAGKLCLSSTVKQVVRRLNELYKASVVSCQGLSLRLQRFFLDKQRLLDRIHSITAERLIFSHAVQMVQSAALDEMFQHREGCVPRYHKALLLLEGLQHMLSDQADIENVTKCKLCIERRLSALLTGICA
Put plainly: ScanMAX Kinase panel (DiscoverX). In kind it is binding. The protocol: as §1, §2, §3

The next assay deals with T9, DYRK1B (Homo sapiens, UniProt Q9Y463).
T9 construct: purchased DiscoverX Corp. ScanMAX Kinase panel
T9 sequence (Q9Y463 whole entry): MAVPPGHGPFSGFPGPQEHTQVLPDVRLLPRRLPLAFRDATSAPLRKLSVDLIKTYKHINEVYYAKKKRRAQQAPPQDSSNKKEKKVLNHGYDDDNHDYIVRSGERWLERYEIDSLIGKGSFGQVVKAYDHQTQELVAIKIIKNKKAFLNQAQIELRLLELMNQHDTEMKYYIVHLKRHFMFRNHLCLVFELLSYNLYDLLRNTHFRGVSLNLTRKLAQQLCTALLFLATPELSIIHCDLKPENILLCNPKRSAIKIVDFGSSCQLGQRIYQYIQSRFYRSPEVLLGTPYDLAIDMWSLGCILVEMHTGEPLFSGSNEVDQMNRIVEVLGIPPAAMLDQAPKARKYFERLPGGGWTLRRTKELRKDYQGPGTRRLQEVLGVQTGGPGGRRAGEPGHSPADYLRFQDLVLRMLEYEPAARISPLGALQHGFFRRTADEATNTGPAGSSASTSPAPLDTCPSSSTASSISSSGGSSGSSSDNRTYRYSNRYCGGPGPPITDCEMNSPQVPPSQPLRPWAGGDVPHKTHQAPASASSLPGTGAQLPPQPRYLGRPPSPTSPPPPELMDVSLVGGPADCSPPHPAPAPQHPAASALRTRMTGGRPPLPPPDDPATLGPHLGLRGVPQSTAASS
Put plainly: ScanMAX Kinase panel (DiscoverX). The note with it: read-out: % Cont @ 1 μM. In kind it is binding. The procedure:
as §1, §2, §3

The target in assay [2] is T10, RSK4(Kin.Dom.1-N-terminal) (Homo sapiens, UniProt Q9UK32).
T10 construct: RSK4(Kin.Dom.1); purchased DiscoverX Corp. ScanMAX Kinase panel
T10 sequence (Q9UK32 73-330 limits assumed): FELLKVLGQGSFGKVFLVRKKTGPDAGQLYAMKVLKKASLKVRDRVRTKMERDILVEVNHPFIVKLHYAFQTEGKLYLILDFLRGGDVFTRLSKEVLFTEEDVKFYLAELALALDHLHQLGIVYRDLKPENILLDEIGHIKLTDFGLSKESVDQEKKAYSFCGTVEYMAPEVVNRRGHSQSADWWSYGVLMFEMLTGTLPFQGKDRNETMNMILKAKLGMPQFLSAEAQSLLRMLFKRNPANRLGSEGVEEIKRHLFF
Put plainly: ScanMAX Kinase panel (DiscoverX). In kind it is binding. The protocol:
as §1, §2, §3

In assay [3] the target is T11, JAK2(JH1domain-catalytic) (Homo sapiens, UniProt O60674).
T11 construct: JAK2(JH1domain-; purchased DiscoverX Corp. (ScanMAX Kinase panel, commissioned)
T11 sequence (O60674 849-1124 limits assumed): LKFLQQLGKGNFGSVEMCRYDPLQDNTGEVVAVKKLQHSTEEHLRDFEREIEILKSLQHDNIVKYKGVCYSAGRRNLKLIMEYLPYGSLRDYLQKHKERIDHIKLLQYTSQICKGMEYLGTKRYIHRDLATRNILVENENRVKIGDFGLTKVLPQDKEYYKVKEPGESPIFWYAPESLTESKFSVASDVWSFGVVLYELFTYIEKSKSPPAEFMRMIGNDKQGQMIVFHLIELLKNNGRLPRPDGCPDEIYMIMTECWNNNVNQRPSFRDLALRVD
Nature of the assay: ScanMAX Kinase panel (DiscoverX). In kind it is binding. The procedure:
as §1, §2, §3

The target of another assay is T12, RIOK1 (Homo sapiens, UniProt Q9BRS2).
T12 construct: purchased DiscoverX Corp. ScanMAX Kinase panel
T12 sequence (Q9BRS2 whole entry): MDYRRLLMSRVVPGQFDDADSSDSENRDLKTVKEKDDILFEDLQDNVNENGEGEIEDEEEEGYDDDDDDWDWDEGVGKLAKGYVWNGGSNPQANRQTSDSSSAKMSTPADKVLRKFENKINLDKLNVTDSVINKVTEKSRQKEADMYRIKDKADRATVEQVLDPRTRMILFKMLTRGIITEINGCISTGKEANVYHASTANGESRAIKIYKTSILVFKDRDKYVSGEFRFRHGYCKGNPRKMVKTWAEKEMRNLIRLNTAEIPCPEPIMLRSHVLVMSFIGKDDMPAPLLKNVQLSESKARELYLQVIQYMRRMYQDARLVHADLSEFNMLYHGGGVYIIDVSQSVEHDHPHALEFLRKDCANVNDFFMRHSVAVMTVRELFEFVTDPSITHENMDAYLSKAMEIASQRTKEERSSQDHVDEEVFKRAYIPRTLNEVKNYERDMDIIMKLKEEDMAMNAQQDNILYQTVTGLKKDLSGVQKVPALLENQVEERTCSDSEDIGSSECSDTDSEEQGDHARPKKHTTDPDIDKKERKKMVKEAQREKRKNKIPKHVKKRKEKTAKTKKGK
Put plainly: ScanMAX Kinase panel (DiscoverX). In kind it is binding. The note with it: read-out: % Cont @ 1 μM. The protocol: as §1, §2, §3

The target in another assay is T13, CAMK2D (Homo sapiens, UniProt Q13557).
T13 construct: purchased DiscoverX Corp. ScanMAX Kinase panel
T13 sequence (Q13557 whole entry): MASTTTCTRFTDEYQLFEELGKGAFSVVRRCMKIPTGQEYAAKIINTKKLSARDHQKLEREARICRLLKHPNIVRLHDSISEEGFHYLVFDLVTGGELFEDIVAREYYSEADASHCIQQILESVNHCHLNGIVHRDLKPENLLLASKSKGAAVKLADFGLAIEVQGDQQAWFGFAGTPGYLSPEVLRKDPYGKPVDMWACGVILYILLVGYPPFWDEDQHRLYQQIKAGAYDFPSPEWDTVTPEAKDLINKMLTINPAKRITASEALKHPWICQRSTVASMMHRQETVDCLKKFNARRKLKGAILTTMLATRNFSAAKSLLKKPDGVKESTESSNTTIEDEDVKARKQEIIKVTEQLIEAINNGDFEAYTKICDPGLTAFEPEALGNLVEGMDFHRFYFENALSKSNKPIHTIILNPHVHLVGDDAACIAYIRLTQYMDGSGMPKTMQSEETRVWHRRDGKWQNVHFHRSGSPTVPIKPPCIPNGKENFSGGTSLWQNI
Put plainly: ScanMAX Kinase panel (DiscoverX). As to conditions: read-out: % Cont @ 1 μM. In kind it is binding. The protocol: as §1, §2, §3

Another assay deals with DU145. Put plainly: Cell proliferation inhibition, carcinomas other than TNBC. In kind it is cell-based. As to conditions: Homo sapiens, DU-145. The protocol:
(§4) To check an ability to inhibit the growth of (MDA-MB-231) cells in two triple-negative breast cancer cell lines, a test was performed, as follows. Cells were seeded in 180 μL of a culture broth at a density of 2,000 to 3,000 cells/well in a white clear bottom 96-well plate (Corning) according to the growth ability of each cell, and then cultured for 24 hours under conditions of 5% CO2 and 37° C. Thereafter, the compound was prepared by diluting a 10 mM stock solution three-fold with 100% DMSO at a total of 12 concentrations so that a peak concentration of the compound was in a range of 10 mM to 0.05 μM, and the diluted compound was then diluted in each cell culture medium so that a final concentration of the compound was in a range of 100 μM to 0.5 nM. 20 μL of a diluted solution diluted with a medium was added to the cell solution in which cells were seeded in the 96-well plate on the previous day so that a final concentration of the diluted solution was in a range of 10 μM to 0.05 nM. Each of the cells was cultured for 5 days. To check cell viability, a mixture provided in a CellTiter-Glo® Luminescent Cell Viability Assay Kit (Promega) was added to each of the cultured cell media, and cultured for another 10 minutes under a condition of 37° C. Then, a degree of luminescence (fluorescence) was measured. A degree of inhibition of the cell growth according to the treatment concentration of each of the compounds was calculated based on the fluorescence of the solvent control cells which were not treated with the compound. In this case, the concentration of each of the compounds inhibiting 50% of the cell growth was determined to be a GI50 (nM) value, and calculated using Prism (Version 7.01; GraphPad) software.
(§5) Next, the activities of the Example compounds against various types of carcinomas other than the TNBC were evaluated in a similar manner as described above. In the following table, the following active value range (GI50 (nM)) was used to evaluate cell proliferation inhibitory activity.

In a further assay the test system is A549. Described as above. As to conditions: Homo sapiens. In kind it is cell-based. The protocol: as §4, §5
The next assay concerns BxPC3. Described as above. In kind it is cell-based. The note with it: Homo sapiens, BXPC-3. The protocol: as §4, §5
For a further assay, the system named is HCT116. The assay is described as above. In kind it is cell-based. As to conditions: Homo sapiens, HCT-116. The procedure: as §4, §5

Each structure is given as a SMILES string.

T1 sequence (Q9Y2U5 whole entry): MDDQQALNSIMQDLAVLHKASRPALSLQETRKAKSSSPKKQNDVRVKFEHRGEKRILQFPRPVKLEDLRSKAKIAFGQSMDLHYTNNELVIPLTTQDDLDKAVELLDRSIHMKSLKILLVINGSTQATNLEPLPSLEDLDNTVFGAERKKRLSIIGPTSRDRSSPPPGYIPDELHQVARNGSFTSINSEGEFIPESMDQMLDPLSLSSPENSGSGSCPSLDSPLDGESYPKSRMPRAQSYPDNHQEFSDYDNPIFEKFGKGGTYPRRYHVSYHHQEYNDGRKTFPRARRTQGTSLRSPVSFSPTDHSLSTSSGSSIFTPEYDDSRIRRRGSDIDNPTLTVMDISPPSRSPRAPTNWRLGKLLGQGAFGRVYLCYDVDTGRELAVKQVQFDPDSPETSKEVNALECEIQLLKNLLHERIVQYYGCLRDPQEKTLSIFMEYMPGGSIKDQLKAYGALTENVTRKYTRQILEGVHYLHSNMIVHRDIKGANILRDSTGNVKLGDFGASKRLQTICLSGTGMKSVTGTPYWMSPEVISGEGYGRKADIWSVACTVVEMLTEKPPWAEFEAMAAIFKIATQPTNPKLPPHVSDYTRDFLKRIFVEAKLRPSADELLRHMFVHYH
T3 sequence (P48730 whole entry): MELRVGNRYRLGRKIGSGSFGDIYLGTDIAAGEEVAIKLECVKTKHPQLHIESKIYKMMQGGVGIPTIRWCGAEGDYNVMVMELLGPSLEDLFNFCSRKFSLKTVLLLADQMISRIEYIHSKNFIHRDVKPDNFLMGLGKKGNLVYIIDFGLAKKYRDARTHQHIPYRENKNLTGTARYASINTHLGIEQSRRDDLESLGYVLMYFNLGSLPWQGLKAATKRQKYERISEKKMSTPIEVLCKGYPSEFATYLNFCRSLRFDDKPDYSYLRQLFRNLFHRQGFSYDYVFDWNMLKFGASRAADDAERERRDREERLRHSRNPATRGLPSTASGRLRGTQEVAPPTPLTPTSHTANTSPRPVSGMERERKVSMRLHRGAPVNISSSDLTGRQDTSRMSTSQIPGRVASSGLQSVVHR

Usually GI50 stands for the concentration giving 50% growth inhibition. Regarding `COc1cc(N2CCCC2=O)ccc1Nc1cc(NC2CCCCC2)c2c(C#N)c[nH]c2n1` [Example 64, 4-(cyclohexylamino)-6-((2-methoxy-4-(2-oxopyrrolidin-1-yl)phenyl)amino)-1H-pyrrolo[2,3-b] pyridine-3-carbonitrile], the remaining binding at 1 µM worked out at 13% at MAP3K2; 24% at CSNK1E; 1.9% in [1]; 4.4% at GAK; 28% on DYRK1B; 27% at RIOK1. Further, the percent of control at 1 µM on CSNK1D amounted to 19%; on CAMK2D it was 12%. The “% Cont @ 1 μM” value on ULK3 was found to be 2.6%; at ULK1, 3.1%; in [2], 3.7%; in assay [3] it was 0%. Also, the percent of control binding at 1 µM at YSK4 stood at 0.3%. The GI50 in the assay on DU145, in the assay on A549, in the assay with BxPC3 and in the assay on HCT116 was < 100 nM each time.
